According to patent publication US7807679B2, “Piperazine derivatives and their use in controlling pests” (Syngenta Crop Protection, Inc., priority 2004, dated 2010):

| melting point [°C] | SMILES |
| --- | --- |
| 117 to 120 | CN(C(=O)c1ccnc(Cl)c1)c1ccccc1N1CCN(C/C=C/c2ccc(Cl)cc2)CC1 [Example 2, 2-chloro-N-(2-{4-[(E)-3-(4-chloro-phenyl)-allyl]-piperazin-1-yl}-phenyl)-N-methyl-isonicotinamide] |
| 118 to 120 | CN1CCN(c2cc(Cl)ccc2NC(=O)c2ccnc(Cl)c2)CC1 [Example 3, 2-Chloro-N-[4-chloro-2-(4-methyl-piperazin-1-yl)-phenyl]-isonicotinamide] |
| 86 to 90 | COCCCNC(=O)Nc1ccc(F)cc1N1CCN(C/C=C/c2ccc(Cl)cc2)CC1 [Example 4, 1-(2-{4-[(E)-3-(4-chloro-phenyl)-allyl]-piperazin-1-yl}-4-fluoro-phenyl)-3-(3-methoxy-propyl)-urea] |
| 79 to 80 | O=C(Nc1c(Cl)cc(Cl)cc1N1CCN(C/C=C/c2ccc(Cl)cc2)CC1)c1ccnc(Cl)c1 [Example 10, 2-chloro-N-(2-{4-[(E)-3-(4-chloro-phenyl)-allyl]-piperazin-1-yl}-4,6-dichloro-phenyl)-isonicotinamide] |
| 210 to 211 | O=C(Nc1cnc(Cl)nc1N1CCN(C/C=C/c2ccc(OC(F)(F)F)cc2)CC1)c1ccnc(Cl)c1 [Example 7, 2-chloro-N-(2-chloro-4-{4-[(E)-3-(4-trifluoromethoxy-phenyl)-allyl]-piperazin-1-yl}-pyrimidin-5-yl)-isonicotinamide] |
| 72 to 77 | O=C1N(Cc2cnc(Cl)s2)CCN1c1ccc(F)cc1N1CCN(C/C=C/c2ccc(Cl)cc2)CC1 [Example 5, 1-(2-{4-[(E)-3-(4-Chloro-phenyl)-allyl]-piperazin-1-yl}-4-fluoro-phenyl)-3-(2-chloro-thiazol-5-ylmethyl)-imidazolidin-2-one] |
